Assay results as given in patent US4503068A, “Use of prostaglandin analogues to treat cytodamage” (priority 1982, dated 1985).
Read-outs that look alike come from different tables or passages of the source.

Columns and labels:
[1] = test system: carbon tetrachloride (CCl4) induced liver damage; assay: Effect on carbon tetrachloride (CCl4) induced liver damage (liver cell necrosis type); type: in vivo, Male Wistar rats; conditions: Rattus norvegicus; for inhibition in vivo at 1 mg/kg: 1000 μg/kg 6 and 12 hr after CCl4; for inhibition in vivo at 0.1 mg/kg: 100 μg/kg 6 and 12 hr after CCl4; for inhibition in vivo at 0.02 mg/kg: 20 μg/kg 6 and 12 hr after CCl4; for inhibition in vivo at 0.05 mg/kg: 50 μg/kg 6 and 12 hr after CCl4; for inhibition in vivo at 0.5 mg/kg: 500 μg/kg 6 and 12 hr after CCl4; for inhibition in vivo at 2 mg/kg: 2000 μg/kg 6 and 12 hr after CCl4
Protocol: Effect on carbon tetrachloride (CCl4) induced liver damage (liver cell necrosis type)
Male Wistar rats weighing 180-220 g were used. Rats were dosed intraperitoneally with CCl4 dissolved in olive oil (5% w/v) at a volume of 500 μl/kg after 18 hr starvation. The compound under test was administered orally (p.o.) or subcutaneously (s.c.) 6 and 12 hr after CCl4 injection in rats and blood was collected after 24 hr. Plasma glutamic oxaloacetic transaminase (GOT) and glutamic pyruvic transaminase (GPT) activities were determined by ultraviolet absorbance methods (optimised method based on the recommendations of the Deutsche Gesellschaft f/u/ r Klinische Chemie). The effects of the compounds tested were assessed by the inhibition rate in comparison with controls. Inhibition rate was calculated by the following formula. [formula]
(§1) In Tables 1 to 4 hereinafter the dose shown is the amount given at each administration of the compound under test.

[2] = test system: carbon tetrachloride-induced liver cell necrosis; conditions: in vivo; cited from earlier work
[3] = test system: acute galactosamine-induced liver damage; conditions: in vivo; cited from earlier work
[4] = test system: α-naphthylisothiocyanate-induced liver damage; assay: Effect on α-naphthylisothiocyanate-induced liver damage (cholangioatresia type); type: in vivo, Male Wistar rats; conditions: p.o., blood after 24 hr
Protocol: as §1
Effect on α-naphthylisothiocyanate-induced liver damage (cholangioatresia type)
Male Wistar rats weighing 190-220 g were used. After rats had fasted for 18 hr, α-naphthylisothiocyanate (ANIT) dissolved in olive oil (1.5% w/v) was given orally to them at 30 mg/kg body weight. The compound under test was administered orally 30 min before and 6 and 12 hr after administration of ANIT and blood was collected after 24 hr. Plasma GOT, GPT and bilirubin activities were determined and the results given in Table 3 show the inhibition rate compared with controls (calculation by the formula shown in Experiment 1).

[5] = test system: D(+)-galactosamine hydrochloride-induced liver damage; assay: Effect on D(+)-galactosamine hydrochloride-induced liver damage (hepatitis type); type: in vivo, Male Wistar rats; conditions: p.o.
Protocol: as §1
Effect on D(+)-galactosamine hydrochloride-induced liver damage (hepatitis type)
Male Wistar rats weighing 180-200 g were used. After the rats had fasted for 18 hr, 375 mg/kg galactosamine hydrochloride was administered to them intraperitoneally two times at 6 hr intervals. The compound under test was administered orally, 30 minutes before and, 6, 12 and 24 hr after the dose of D(+)-galactosamine hydrochloride and blood was collected after 24 and 48 hr. Plasma GOT and GPT activities were determined in the manner described in Experiment 1; plasma bilirubin activities were also determined. The effects were shown by the inhibition rate compared with controls (calculation by the formula shown in Experiment 1).

in vivo = conditions: mouse, mice, oral, observed for 14 days
Protocol: Male JCL-ICR mice (non SPF mice) from 7 weeks of age were used. The compound under test was dissolved in 5% v/v ethanol containing 0.4% w/v Tween 80 (Tween is a registered trademark) and administered orally to the mice.

[6] = test system: diet-induced acute pancreatitis; conditions: mice; cited from earlier work
[7] = test system: isolate perfused cat liver; conditions: cited from earlier work
[8] = test system: endotoxin-induced lung injury; conditions: sheep; cited from earlier work
[9] = test system: ischemic myocardial tissue; conditions: cat; cited from earlier work
endotoxin shock = conditions: dog; cited from earlier work
[10] = po, plasma GOT after 24 hr, read-out: inhibition rate, GOT
[11] = po, plasma GPT after 24 hr, read-out: inhibition rate, GPT
[12] = sc, plasma GOT after 24 hr, read-out: inhibition rate, GOT
[13] = sc, plasma GPT after 24 hr, read-out: inhibition rate, GPT

Structure (SMILES): CCCC1CCC(C(O)/C=C/[C@@H]2[C@H]3CC(CCCCCO)=N[C@H]3C[C@H]2O)C1 (single isomer, unassigned) [Compound 13, 15-(3-propylcyclopentyl)-16,17,18,19,20-pentanor-6,9α-nitrilo-PGI1 alcohol]
- inhibition in vivo at 1 mg/kg [1, 10]: 53.6%
- inhibition in vivo at 1 mg/kg [1, 11]: 58.2%

Structure (SMILES): CCCCC(C)(C)[C@H](O)/C=C/[C@H]1[C@H](O)CC(=O)[C@@H]1C/C=C\CCCC(=O)O [16,16-dimethyl-PGE2]
- prevention of carbon tetrachloride-induced liver cell necrosis [2]: prevents
- prevention of acute galactosamine-induced liver damage [3]: prevents

Structure (SMILES): CCCC[C@H](C)[C@H](O)/C=C/[C@H]1[C@H](O)CC(=O)[C@@H]1CC(=O)CCCCC(=O)OC [Compound 1, 16S-methyl-6-oxo-PGE1 methyl ester]
- inhibition in vivo at 0.1 mg/kg [1, 10]: 59.9%
- inhibition in vivo at 0.1 mg/kg [1, 11]: 53.5%
- inhibition in vivo at 0.02 mg/kg [1, 12]: 27.8%
- inhibition in vivo at 0.02 mg/kg [1, 13]: 16.3%

Structure (SMILES): CCCC[C@H](C)C[C@H](O)/C=C/[C@H]1[C@H](O)CC(=O)[C@@H]1CC(=O)CCCCC(=O)OC [Compound 2, 17S,20-dimethyl-6-oxo-PGE1 methyl ester]
- inhibition, GOT ([4]; 100 μg/kg per administration): 39.6%
- inhibition, GPT ([4]; 100 μg/kg per administration): 41.9%
- inhibition, bilirubin ([4]; 100 μg/kg per administration): 37.5%
- inhibition rate, GOT 24 hr after ([5]; 100 μg/kg per administration): 29.5%
- inhibition rate, GPT 24 hr after ([5]; 100 μg/kg per administration): 6.7%
- inhibition rate, bilirubin 24 hr after ([5]; 100 μg/kg per administration): 24.2%
- inhibition rate, GOT 48 hr after ([5]; 100 μg/kg per administration): 32.7%
- inhibition rate, GPT 48 hr after ([5]; 100 μg/kg per administration): 23.5%
- inhibition rate, bilirubin 48 hr after ([5]; 100 μg/kg per administration): 34.6%
- inhibition in vivo at 0.05 mg/kg [1, 10]: 61.5%
- inhibition in vivo at 0.05 mg/kg [1, 11]: 44.1%
- inhibition in vivo at 0.02 mg/kg [1, 12]: 37.9%
- inhibition in vivo at 0.02 mg/kg [1, 13]: 34.6%

Structure (SMILES): CCCCC[C@](C)(O)/C=C/[C@H]1[C@H](O)CC(=O)[C@@H]1CC(=O)CCCCC(=O)O [Compound 3, 15S-methyl-6-oxo-PGE1]
- inhibition in vivo at 0.1 mg/kg [1, 10]: 6.8%
- inhibition in vivo at 0.1 mg/kg [1, 11]: 13.2%

Structure (SMILES): CCCC[C@H](C)C[C@H](O)CC[C@H]1[C@H](O)CC(=O)[C@@H]1CC(=O)CCCCC(=O)OC [Compound 4, 17S,20-dimethyl-13,14-dihydro-6-oxo-PGE1 methyl ester]
- LD50 at 336 h (in vivo): > 10 mg/kg
- inhibition in vivo at 0.1 mg/kg [1, 10]: 52.1%
- inhibition in vivo at 0.1 mg/kg [1, 11]: 62.3%

Structure (SMILES): CCCC[C@H](C)C[C@H](O)/C=C/[C@H]1[C@H](O)CC(=O)[C@@H]1CC(=O)CCCCCO [Compound 5, 17S,20-dimethyl-6-oxo-PGE1 alcohol]
- LD50 at 336 h (in vivo): > 10 mg/kg
- inhibition, GOT ([4]; 100 μg/kg per administration): 54.1%
- inhibition, GPT ([4]; 100 μg/kg per administration): 53.1%
- inhibition, bilirubin ([4]; 100 μg/kg per administration): 41.7%
- inhibition in vivo at 0.05 mg/kg [1, 10]: 56.6%
- inhibition in vivo at 0.05 mg/kg [1, 11]: 59.1%

Structure (SMILES): CCCC[C@H](C)C[C@H](O)/C=C/[C@@H]1[C@H]2C[C@H](CCCCC(=O)OC)O[C@H]2C[C@H]1O [Compound 6, 17S,20-dimethyl-6S-PGI1 methyl ester]
- LD50 at 336 h (in vivo): > 50 mg/kg
- inhibition, GOT ([4]; 2000 μg/kg per administration): 40.9%
- inhibition, GPT ([4]; 2000 μg/kg per administration): 44.6%
- inhibition, bilirubin ([4]; 2000 μg/kg per administration): 33.3%
- inhibition rate, GOT 24 hr after ([5]; 2000 μg/kg per administration): 50.2%
- inhibition rate, GPT 24 hr after ([5]; 2000 μg/kg per administration): 37.8%
- inhibition rate, bilirubin 24 hr after ([5]; 2000 μg/kg per administration): 31.8%
- inhibition rate, GOT 48 hr after ([5]; 2000 μg/kg per administration): 25.5%
- inhibition rate, GPT 48 hr after ([5]; 2000 μg/kg per administration): 21.4%
- inhibition rate, bilirubin 48 hr after ([5]; 2000 μg/kg per administration): 19.2%
- inhibition in vivo at 0.5 mg/kg [1, 12]: 55.3%
- inhibition in vivo at 0.5 mg/kg [1, 13]: 64.6%

Structure (SMILES): CCCC[C@H](C)C[C@H](O)/C=C/[C@@H]1[C@H]2CC(CC/C=C/C(=O)OC)O[C@H]2C[C@H]1O (stereo partly drawn) [Compound 7, 17S,20-dimethyl-trans-Δ^2-6RS-PGI1 methyl ester]
- inhibition in vivo at 1 mg/kg [1, 10]: 58%
- inhibition in vivo at 1 mg/kg [1, 11]: 42.7%

Structure (SMILES): CCCC[C@H](C)C[C@H](O)/C=C/[C@@H]1[C@H]2CC(CCCCC(=O)OC)=N[C@H]2C[C@H]1O [Compound 8, 17S,20-dimethyl-6,9α-nitrilo-PGI1 methyl ester]
- LD50 at 336 h (in vivo): 40 to 100 mg/kg
- inhibition, GOT ([4]; 1000 μg/kg per administration): 68.7%
- inhibition, GPT ([4]; 1000 μg/kg per administration): 76.1%
- inhibition, bilirubin ([4]; 1000 μg/kg per administration): 45.8%
- inhibition rate, GOT 24 hr after ([5]; 1000 μg/kg per administration): 40.2%
- inhibition rate, GPT 24 hr after ([5]; 1000 μg/kg per administration): 32.6%
- inhibition rate, bilirubin 24 hr after ([5]; 1000 μg/kg per administration): 12.1%
- inhibition rate, GOT 48 hr after ([5]; 1000 μg/kg per administration): 57.2%
- inhibition rate, GPT 48 hr after ([5]; 1000 μg/kg per administration): 47.6%
- inhibition rate, bilirubin 48 hr after ([5]; 1000 μg/kg per administration): 11.5%
- inhibition in vivo at 1 mg/kg [1, 10]: 41.1%
- inhibition in vivo at 1 mg/kg [1, 11]: 14.5%
- inhibition in vivo at 0.5 mg/kg [1, 12]: 65.6%
- inhibition in vivo at 0.5 mg/kg [1, 13]: 58.6%

Structure (SMILES): CCCC[C@H](C)C[C@H](O)/C=C/[C@@H]1[C@H]2C[C@H](CCCCC(=O)CO)O[C@H]2C[C@H]1O [Compound 9, 2-decarboxy-2-glycoloyl-17S,20-dimethyl-6S-PGI1]
- LD50 at 336 h (in vivo): > 50 mg/kg
- inhibition in vivo at 0.5 mg/kg [1, 12]: 58.4%
- inhibition in vivo at 0.5 mg/kg [1, 13]: 51.4%

Structure (SMILES): O=C(CO)CCCC[C@H]1C[C@@H]2[C@@H](/C=C/[C@@H](O)C3CCCC3)[C@H](O)C[C@@H]2O1 [Compound 10, 2-decarboxy-2-glycoloyl-15-cyclopentyl-16,17,18,19,20-pentanor-6S-PGI]
- inhibition in vivo at 1 mg/kg [1, 12]: 11.8%
- inhibition in vivo at 1 mg/kg [1, 13]: 0%

Structure (SMILES): CCCC[C@H](C)C[C@H](O)/C=C/[C@@H]1[C@H]2C[C@H](CCCCCO)O[C@H]2C[C@H]1O [Compound 11, 17S,20-dimethyl-6S-PGI1 alcohol]
- LD50 at 336 h (in vivo): > 50 mg/kg
- inhibition in vivo at 0.5 mg/kg [1, 12]: 73.3%
- inhibition in vivo at 0.5 mg/kg [1, 13]: 65.2%

Structure (SMILES): OCCCCC[C@H]1C[C@@H]2[C@@H](/C=C/[C@@H](O)C3CCCC3)[C@H](O)C[C@@H]2O1 [Compound 12, 15-cyclopentyl-16,17,18,19,20-pentanor-6S-PGI1 alcohol]
- inhibition in vivo at 2 mg/kg [1, 10]: 7.4%
- inhibition in vivo at 2 mg/kg [1, 11]: 44.1%

Structure (SMILES): CCCCC[C@H](O)/C=C/[C@H]1[C@H](O)CC(=O)[C@@H]1C/C=C\CCCC(=O)O [PGE2]
- effect against diet-induced acute pancreatitis [6]: effective

Structure (SMILES): CCCCC[C@H](O)/C=C/[C@@H]1[C@H]2C/C(=C/CCCC(=O)O)O[C@H]2C[C@H]1O [PGI2, (5Z,13E)-(9α,11α,15S)-6,9-epoxy-11,15-dihydroxyprosta-5,13-dienoic acid]
- effect on hypoxia in the isolate perfused cat liver [7]: prevents and is useful in treating
- effect on endotoxin-induced lung injury [8]: prevents and is useful in treating
- effect on ischemic myocardial tissue [9]: prevents and is useful in treating
- effect on endotoxin shock (endotoxin shock): prevents and is useful in treating
